Data: patent publication US20090317360A1, “ANTI-VIRAL INHIBITORS AND METHODS OF USE” (Genelabs Technologies, Inc., priority 2007, published 2009)

Experiment: Replicon assay (luciferase readout, ET cell line)
Assay type: cell-based
Settings: Hepatitis C virus; 10 μM compound; ET (Huh-lucubineo-ET) cells; luciferase activity measured 48-72 hours after addition; relative to no compound control; read-out: % Inhib. at 10 μM (percent inhibition of replication)
Description: A cell line, ET (Huh-lucubineo-ET) is used for screening of compounds for inhibiting HCV RNA dependent RNA polymerase. The ET cell line is stably transfected with RNA transcripts harboring a I389luc-ubi-neo/NS3-3′/ET; replicon with firefly luciferase-ubiquitin-neomycin phosphotransferase fusion protein and EMCV-IRES driven NS3-5B polyprotein containing the cell culture adaptive mutations (E1202G; T12801; K1846T) (Krieger at al, 2001 and unpublished). The ET cells are grown in DMEM (Dulbeco's Modified Eagle's Medium), supplemented with 10% fetal calf serum, 2 mM Glutamine, Penicillin (100 IU/mL)/Streptomycin (100 μg/mL), 1× nonessential amino acids, and 250 μg/mL G418 (“Geneticin”). They are all available through Life Technologies (Bethesda, Md.). The cells are plated at 0.5-1.0×10^4 cells/well in the 96 well plates and incubated for 24 hrs before adding test compound. The compounds are added to the cells to achieve a final concentration of 0.1 nM to 50 μm and a final DMSO (dimethylsulfoxide) concentration of 0.5%. Luciferase activity is measured 48-72 hours later by adding a lysis buffer and the substrate (Catalog number Glo-lysis buffer E2661 and Bright-Glo luciferase system E2620 Promega, Madison, Wis.). Cells should not be too confluent during the assay. Percent inhibition of replication data is plotted relative to no compound control. Under the same condition, cytotoxicity of the compounds are determined using cell proliferation reagent, WST-1(Roche, Germany). The compounds showing antiviral activities, but no significant cytotoxicities are chosen to determine IC50 and TC50. For these determinations, a 10 point, 2-fold serial dilution for each compound was used, which spans a concentration range of 1000 fold. IC50 and TC50 values were calculated by fitting % inhibition at each concentration to the following equation:
% inhibition=100%/[(IC50/[I])^b+1]
where b is Hill's coefficient. […]

CCCS(=O)(=O)N1CCN(Cc2ccc(NC(=O)c3cccc(-c4csc(C(=O)Nc5ccc(CN6CCN(S(=O)(=O)CCC)CC6)cc5)n4)c3)cc2)CC1 [Compound 115, 4-(3-{4-[4-(Propane-1-sulfonyl)-piperazin-1-ylmethyl]-phenylcarbamoyl}-phenyl)-thiazole-2-carboxylic acid {4-[4-(propane-1-sulfonyl)-piperazin-1-ylmethyl]-phenyl}-amide]
inhibition at 10 µM: 100%

CCCS(=O)(=O)N1CCN(Cc2ccc(NC(=O)c3cccc(-c4csc(C(=O)Nc5ccc(N6CCOCC6)cc5)n4)c3)cc2)CC1 [Compound 116, 4-(3-{4-[4-(Propane-1-sulfonyl)-piperazin-1-ylmethyl]-phenylcarbamoyl}-phenyl)-thiazole-2-carboxylic acid (4-morpholin-4-yl-phenyl)-amide]
inhibition at 10 µM: 99.5%

O=C(Nc1ccc(CN2CCS(=O)(=O)CC2)cc1)c1cccc(-c2csc(C(=O)Nc3ccc(CN4CCS(=O)(=O)CC4)cc3)n2)c1 [Compound 113, 4-{3-[4-(1,1-Dioxo-thiomorpholin-4-ylmethyl)-phenylcarbamoyl]-phenyl}-thiazole-2-carboxylic acid [4-(1,1-dioxo-thiomorpholin-4-ylmethyl)-phenyl]-amide]
inhibition at 10 µM: 89.5%

CCCS(=O)(=O)N1CCN(Cc2ccc(NC(=O)c3ccc(-c4csc(C(=O)Nc5ccc(CN6CCN(S(=O)(=O)CCC)CC6)cc5)n4)cc3)cc2)CC1 [Compound 114, 4-(4-{4-[4-(Propane-1-sulfonyl)-piperazin-1-ylmethyl]-phenylcarbamoyl}-phenyl)-thiazole-2-carboxylic acid {4-[4-(propane-1-sulfonyl)-piperazin-1-ylmethyl]-phenyl}-amide]
inhibition at 10 µM: 98%

O=C(Nc1ccc(CN2CCS(=O)(=O)CC2)cc1)c1cccc(-c2csc(C(=O)Nc3ccc(N4CCOCC4)cc3)n2)c1 [Compound 108, 4-{3-[4-(1,1-Dioxo-thiomorpholin-4-ylmethyl)-phenylcarbamoyl]-phenyl}-thiazole-2-carboxylic acid (4-morpholin-4-yl-phenyl)-amide]
inhibition at 10 µM: 63.1%

O=C(Nc1ccc(N2CCOCC2)cc1)c1cccc(-c2csc(C(=O)Nc3ccc(N4CCOCC4)cc3)n2)c1 [Compound 112, 4-[3-(4-Morpholin-4-yl-phenylcarbamoyl)-phenyl]-thiazole-2-carboxylic acid (4-morpholin-4-yl-phenyl)-amide]
inhibition at 10 µM: 98.5%

O=C(Nc1nc(-c2ccc(C(=O)NC3CC3)cc2)cs1)c1ccc(CN2CCS(=O)(=O)CC2)cc1 [Compound 102, 4-{2-[4-(1,1-Dioxo-thiomorpholin-4-ylmethyl)-benzoylamino]-thiazol-4-yl}-N-cyclopropyl-benzamide]
inhibition at 10 µM: 47.4%

O=C(Nc1ccc(N2CCOCC2)cc1)c1cccc(-c2csc(C(=O)Nc3ccc(CN4CCS(=O)(=O)CC4)cc3)n2)c1 [Compound 107, 4-[3-(4-Morpholin-4-yl-phenylcarbamoyl)-phenyl]-thiazole-2-carboxylic acid [4-(1,1-dioxo-thiomorpholin-4-ylmethyl)-phenyl]-amide]
inhibition at 10 µM: 36.5%

O=C(Nc1ccc(N2CCOCC2)cc1)c1cccc(-c2csc(NC(=O)c3ccc(CN4CCS(=O)(=O)CC4)cc3)n2)c1 [Compound 104, 3-{2-[4-(1,1-Dioxo-thiomorpholin-4-ylmethyl)-benzoylamino]-thiazol-4-yl}-N-(4-morpholin-4-yl-phenyl)-benzamide]
inhibition at 10 µM: 95.8%

O=C(Nc1ccc(N2CCOCC2)cc1)c1ccc(-c2csc(C(=O)Nc3ccc(N4CCOCC4)cc3)n2)cc1 [Compound 111, 4-[4-(4-Morpholin-4-yl-phenylcarbamoyl)-phenyl]-thiazole-2-carboxylic acid (4-morpholin-4-yl-phenyl)-amide]
inhibition at 10 µM: 34.2%

O=C(Nc1ccc(CN2CCS(=O)(=O)CC2)cc1)c1ccc(-c2csc(C(=O)Nc3ccc(CN4CCS(=O)(=O)CC4)cc3)n2)cc1 [Compound 110, 4-{4-[4-(1,1-Dioxo-thiomorpholin-4-ylmethyl)-phenylcarbamoyl]-phenyl}-thiazole-2-carboxylic acid [4-(1,1-dioxo-thiomorpholin-4-ylmethyl)-phenyl]-amide]
inhibition at 10 µM: 99.9%

O=C(Nc1ccc(CN2CCS(=O)(=O)CC2)cc1)c1cccc(-c2csc(NC(=O)c3ccc(N4CCOCC4)cc3)n2)c1 [Compound 109, 3-[2-(4-morpholin-4-yl-benzoylamino)-thiazol-4-yl]-N-[4-(1,1-dioxo-thiomorpholin-4-ylmethyl)-phenyl]-benzamide]
inhibition at 10 µM: 99.8%
